Tests used:
[1] = cited from earlier work
H460 NSCLC = H460 NSCLC xenograft, tumor growth delay; assay type: in vivo, female athymic nude mice
From the text: (§1) The models evaluated included MV522, A549 and H460 NSCLC. […] The experiments used a tumor growth delay (TGD) endpoint based on median time to endpoint, i.e., tumor volume of 1000-2000 mm^3, and treatments were compared to untreated controls using the Logrank test for statistical significance.

[2] = patients taking erlotinib; cited from earlier work
A549 NSCLC = A549 NSCLC xenograft, tumor growth delay; assay type: in vivo, female athymic nude mice
From the text: as §1

[3] = Oral pharmacokinetics, all species examined; assay type: in vivo; conditions: orally administered; mice, rats, dogs, and monkeys
Protocol: Peak plasma concentrations were achieved between 1 and 3 hours after a dose of 5 mg/kg. […] Oral availability was greatest in rodent, and was reduced in dogs and monkeys (59 and 34% respectively).

MV522 NSCLC = assay: in vivo; conditions: MV522
From the text: as §1

in vivo = conditions: female, athymic nude, mouse, in vivo, po
From the text: as §1

CC(=O)O[C@@]12CO[C@@H]1C[C@H](O)[C@@]1(C)C(=O)[C@H](O)C3=C(C)[C@@H](OC(=O)[C@H](O)[C@@H](NC(=O)OC(C)(C)C)c4ccccc4)C[C@@](O)([C@@H](OC(=O)c4ccccc4)[C@H]21)C3(C)C [Docetaxel]
Solubility in water [1]: practically insoluble | Tumor growth delay (TGD) (H460 NSCLC; 25 mg/kg iv weekly x3): 10.8 days | Tumor growth delay (TGD), percent (H460 NSCLC; 25 mg/kg iv weekly x3): 80%

C#Cc1cccc(Nc2ncnc3cc(OCCOC)c(OCCOC)cc23)c1 [erlotinib, N-(3-ethynylphenyl)-6,7-bis(2-methoxyethoxy)quinazolin-4-amine]
Patients with common side effects (rash, diarrhea, poor appetite, fatigue, shortness of breath, cough, nausea and vomiting) [2]: greater than 30 % of patients

Cc1ccc(-c2cc(C(F)(F)F)nn2-c2ccc(S(N)(=O)=O)cc2)cc1 [celecoxib, reference compound]
Tumor growth delay (TGD) (A549 NSCLC; 100 mg/kg): 15.4 days | Tumor growth delay (TGD), percent (A549 NSCLC; 100 mg/kg): 39% | Tumor growth delay (TGD) (H460 NSCLC; COX-2 inhibitor monotherapy): 3.0 days | Tumor growth delay (TGD), percent (H460 NSCLC; COX-2 inhibitor monotherapy): 22%

CCOc1ccc(-c2cc(C)cn2-c2ccc(S(N)(=O)=O)cc2)cc1
Absorption after oral administration [3]: rapidly absorbed | Tumor growth delay (TGD) (MV522 NSCLC; 10 mg/kg oral daily): 19.1 days | Tumor growth delay (TGD), percent (MV522 NSCLC; 10 mg/kg oral daily): 57% | Tumor growth delay (TGD) (MV522 NSCLC; 30 mg/kg (MTD) oral daily): 32.1 days | Tumor growth delay (TGD), percent (MV522 NSCLC; 30 mg/kg (MTD) oral daily): 96% | MTD (in vivo): 30 mg/kg | Tumor growth delay (TGD) (A549 NSCLC; at its MTD, oral daily): 24.3 days | Tumor growth delay (TGD), percent (A549 NSCLC; at its MTD, oral daily): 62% | Tumor growth delay (TGD) (H460 NSCLC; COX-2 inhibitor monotherapy): 4.0 days | Tumor growth delay (TGD), percent (H460 NSCLC; COX-2 inhibitor monotherapy): 30%
